Source: PMC4077824, “Conserved Prosegment Residues Stabilize a Late-Stage Folding Transition State of Pepsin Independently of Ground States” (PLoS ONE, 2014)
Where no end group is shown, it is not given here.

Experiment: CD spectroscopy of prosegment
Format: physicochemical
Conditions: PSwt 0.1 mg/ml, pure water or 20 mM acetic acid/NaOH pH 5.3 with and without 100 mM NaCl
Description: CD data were collected using a Jasco J-810 spectropolarimeter (Jasco corp., Tokyo, Japan), over a wavelength range of 250 nm to 190 nm with a 1 nm resolution, 100 nm/min scan rate, 0.25 s response time and four-fold accumulation of scans. PSwt was diluted to 0.1 mg/ml in either pure water or 20 mM acetic acid/NaOH buffer at pH 5.3, with and without 100 mM NaCl, and loaded into a cell with a 0.1 cm path length. Background spectra were subtracted and the sample spectra converted to units of mean residue ellipticity, MRE, using MRE = MRW ×θ λ/(10×d×c), where MRW is the mean residue weight (molecular weight/number of residues), θ λ is the measured ellipticity at a particular wavelength (degrees), d is the pathlength (0.1 cm) and c is the protein concentration (g/cm^3).
Supplementary file pone.0101339.s006.tif: Figure S6 CD spectra of prosegment. Far-UV CD spectra of PSwt, in ddH2O and in 20 mM acetic acid/NaOH, at pH 5.3, with and without 100 mM NaCl added. […] Anal Biochem 287: 243–251]. (TIF) Click here for additional data file.

- secondary structure of free PS by CD (listed as PS): unstructured on its own
Sequence: LVKVPLVRKKSLRQNLIKNGKLKDFLKTHKHNPASKYFPEAAAL [WT]
- secondary structure of free PS by CD: A negative band at 198 nm is characteristic of random coil structure
